According to US7371739B2, “Aryl fructose-1,6-bisphosphatase inhibitors” (Metabasis Therapeutics, Inc., priority 2000, dated 2008):

The molecules below were run against T1, rat liver FBPase (Rattus norvegicus, UniProt P19112) (assay: Inhibition of Rat Liver FBPase). Conditions: assay identical to human liver FBPase; read-out: IC50 for AMP, rat liver FBPase.
T1 construct: made in house; host or cells: E. coli BL21
T1 sequence (P19112 2-363 limits assumed): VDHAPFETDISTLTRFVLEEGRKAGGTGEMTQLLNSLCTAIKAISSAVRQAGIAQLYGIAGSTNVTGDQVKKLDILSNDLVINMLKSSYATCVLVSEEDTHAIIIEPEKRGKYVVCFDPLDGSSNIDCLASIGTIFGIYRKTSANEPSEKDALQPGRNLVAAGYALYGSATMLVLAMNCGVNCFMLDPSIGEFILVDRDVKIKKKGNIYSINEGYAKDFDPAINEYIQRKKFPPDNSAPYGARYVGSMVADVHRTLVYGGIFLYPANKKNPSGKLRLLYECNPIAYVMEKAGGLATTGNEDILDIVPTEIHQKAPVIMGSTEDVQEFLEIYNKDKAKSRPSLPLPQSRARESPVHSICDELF
Type: biochemical
Method: Recombinant FBPase is purified as described (El-Maghrabi, M. R., and Pilkis, S. J. (1991) Biochem. Biophys. Res. Commun. 176, 137-144) The enzyme assay is identical to that described above for human liver FBPase. The IC50 for AMP is 20 μM.
`Nc1ncnc2c1ncn2[C@@H]1O[C@H](COP(=O)(O)O)[C@@H](O)[C@H]1O` [AMP, reference compound] was tested, and the IC50 was 20 µM.

These molecules were tested on human liver microsomes (P450 isozymes CYP3A4, CYP1A2, CYP2C9) (assay: Identification of the P450 Isozyme Involved in the Activation). Conditions: 0-100 μM P450 isozyme inhibitor.
Type: in vitro ADME
Method: Prodrugs are evaluated for human microsome-catalyzed conversion to parent compound in the absence and presence of specific inhibitors of three major P450 isozymes: ketoconazole (CYP3A4), furafylline (CYP1A2), and sulfaphenazole (CYP2C9).
Methods: Reaction (0.5 ml@37° C.) consist of 0.2 M KH2PO4, 13 mM glucose-6-phosphate, 2.2 mM NADP^+, 1 unit of glucose-6-phosphate dehydrogenase, 0-2.5 mg/ml human microsomal protein (In Vitro Technologies, In.), […], and 0-100 μM P450 isozyme inhibitor. Reactions are stopped by addition of methanol to a concentration of 60%, filtered ([…]), and lyophilized. Samples are resuspended in HPLC buffer (10 mM phosphate pH 5.5, 2.5 mM octyl-triethylammonium), loaded onto a YMC C8 HPLC column (250×4.6 mm), and eluted with a methanol gradient to 80%. Formuation of parent drug is confirmed by co-elution with an authentic parent drug standard.
Results: Prodrug is converted readily to parent drug in human liver microsomes.
For `CC(=O)N1CCN(c2ccc(OCC3COC(Cn4ccnc4)(c4ccc(Cl)cc4Cl)O3)cc2)CC1` (stereo not drawn) [Ketoconazole], the “inhibition of formation of parent drug from prodrug by P450 isozyme inhibitor” value (“inhibition of formation of parent drug” for short) was “inhibit the formation of parent drugs in a dose-dependent fashion”.
`Cc1nc2c([nH]1)c(=O)n(C)c(=O)n2Cc1ccco1` [fusafylline] was tested, and the “inhibition of formation of parent drug” value was “no significant inhibition”.
`Nc1ccc(S(=O)(=O)Nc2ccnn2-c2ccccc2)cc1` [sulfaphenazole] was tested, and the “inhibition of formation of parent drug” value was “no significant inhibition”.

These molecules were tested against T2, human liver FBPase (Homo sapiens, UniProt P09467) (assay: Inhibition of Human Liver FBPase). Conditions: not given.
T2 sequence (P09467 2-338 limits assumed): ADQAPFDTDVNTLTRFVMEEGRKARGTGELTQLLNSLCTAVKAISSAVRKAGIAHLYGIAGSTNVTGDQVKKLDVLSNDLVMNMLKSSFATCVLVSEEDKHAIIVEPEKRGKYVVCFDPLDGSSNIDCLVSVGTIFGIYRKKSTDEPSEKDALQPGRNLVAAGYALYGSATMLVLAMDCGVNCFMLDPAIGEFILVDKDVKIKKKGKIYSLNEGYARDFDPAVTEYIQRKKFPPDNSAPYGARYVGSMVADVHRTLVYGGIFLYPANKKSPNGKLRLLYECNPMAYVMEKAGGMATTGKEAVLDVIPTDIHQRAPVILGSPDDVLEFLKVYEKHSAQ
`O=P(O)(O)c1ccc(-c2ccc(Cl)cc2Cl)o1` [Compound 2.02] gave an IC50 of 3 µM.
For `Nc1cc(-c2ccc(P(=O)(O)O)o2)ccc1Br` [Compound 3.01, 5-(4-Bromo-3-aminophenyl)-2-furanphosphonic Acid], the IC50 was 5.5 µM.
In the case of `COc1ccc(CNc2ccc(NC(C)=O)cc2)cc1-c1ccc(P(=O)(O)O)o1` [Compound 4.50], the IC50 is reported as 6.5 µM.
`O=P(O)(O)c1ccc(-c2ccc(F)cc2)o1` [Compound 2.01, 5-(4-Fluorophenyl)-2-furanphosphonic Acid] was tested, and the IC50 was 2.2 µM.
`COc1c(Br)cccc1C(=O)OCP(=O)(O)O` [Compound 12.01, Phosphonomethyl 3-Bromo-2-methoxybenzoate] gave an IC50 of 4.2 µM.
For `COc1ccc(CN(C(C)=O)c2ccc(N)cc2)cc1-c1ccc(P(=O)(O)O)o1` [Compound 4.51], the IC50 was 12 µM.
Work on `O=C(NCP(=O)(O)O)c1ccc(Br)o1` [Compound 8.01, N-(Phosphonomethyl)-5-bromofuran-2-carboxamide] yielded an IC50 of 4 µM.
With `O=P(O)(O)C#Cc1ccccc1` [Compound 16.01, 1-Phosphono-2-phenylacetylene] the IC50 was 89 µM.
For `COc1cc(COCP(=O)(O)O)ccc1Br` [Compound 13.01, 4-Bromo-3-methoxyphenylmethoxymethylphosphonic acid], the IC50 was 11 µM.
`COc1ccc(CNc2ccc(O)cc2)cc1-c1ccc(P(=O)(O)O)o1` [Compound 4.48] was tested, and the IC50 was 0.14 µM.
Molecule `COc1cc(Cl)ccc1C(=O)OCP(=O)(O)O` [Compound 11.01, Phosphonomethyl 4-Chloro-2-methoxybenzoate] has an IC50 of 2.8 µM.
`COc1ccc(Cl)cc1-c1ccc(P(=O)(O)O)o1` [Compound 1.03] gave an IC50 of 0.5 µM.
`O=C(NCP(=O)(O)O)c1cc([N+](=O)[O-])cc([N+](=O)[O-])c1` [Compound 8.14] showed an IC50 of 4 µM.
Work on `Nc1c(-c2ccc(P(=O)(O)O)o2)cc([N+](=O)[O-])cc1[N+](=O)[O-]` [Compound 1.02] yielded an IC50 of 1.8 µM.
Work on `COc1ccc(CNc2ccc(N)cc2)cc1-c1ccc(P(=O)(O)O)o1` [Compound 4.49] yielded an IC50 of 0.32 µM.
`O=C(OCP(=O)(O)O)c1ccc(Br)o1` [Compound 11.02] showed an IC50 of 6.4 µM.
For `COc1ccc(CNc2ccccc2)cc1-c1ccc(P(=O)(O)O)o1` [Compound 4.46], the IC50 was 3 µM.
`O=[N+]([O-])c1cc(COCP(=O)(O)O)cc([N+](=O)[O-])c1` [Compound 13.02] showed an IC50 of 9 µM.
Molecule `O=[N+]([O-])c1cc(-c2ccc(P(=O)(O)O)o2)cc([N+](=O)[O-])c1` [Compound 1.01, 5-(3,5-Dinitrophenyl)-2-furanphosphonic Acid] has an IC50 of 0.31 µM.

Same assay, conditions: read-out: IC50 for AMP, human liver FBPase; text value for reference AMP
Work on `Nc1ncnc2c1ncn2[C@@H]1O[C@H](COP(=O)(O)O)[C@@H](O)[C@H]1O` [AMP, reference compound] yielded an IC50 of 1 µM.
